“And” between values parts separate entries of the source, which are not always exact repeats. Equal entries are not always repeated.
These substances were tested against LFG2:4B10 mAb. Details: not given.
With AFKDEIGGGSK-biotin the Kd was 28.7 nM and 35.1 nM and the “Response R” value was 0.556 and 0.5352. For TAKDEIGGGSK-biotin, the Kd was 31.5 nM and 20.9 nM and the “Response R” value was 3.7854 and 3.7743. In the case of TFKDAIGGGSK-biotin, the Kd is reported as 24.5 nM and the “Response R” value is reported as 1.0132. With THQDEIYEQK-biotin the Kd was 53.1 nM, the “Response R” value was 0.7024 and the binding response was 0.7 nm. TFKDEIGGGSK-biotin was tested, and the Kd was 9.97 nM, the “Response R” value was 4.8387 and the binding response was 4.83 nm. The “improvement in binding response versus native epitope THQDEIYEQK-biotin” value was roughly 7 fold. In the case of TFKDEAGGGSK-biotin, the Kd is reported as 16.4 nM and the “Response R” value is reported as 5.2909. TFADEIGGGSK-biotin was tested, and the Kd was 25.2 nM and 23.9 nM and the “Response R” value was 0.4475 and 0.4596. With TFQDEIGGGSK-biotin the Kd was 34.4 nM and the “Response R” value was 1.3414. For THKDEIGGGSK-biotin, the Kd was 60 nM and the “Response R” value was 2.3704. In the case of TFKAEIGGGSK-biotin, the “Response R” value is reported as 0.2612 and 0.2492.

Same assay, conditions: read-out: dissociation (KD)
For THQDEIYEQK-biotin, the Kd was 53 nM. For TFKDEIGGGSK-biotin, the Kd was 13.9 nM.

— US9845349B2 (priority 2012, dated 2017)
